Measured values published in patent US3947569A, “Process for preparing the releasing hormone of luteinizing hormone (LH) and of follicle stimulating hormone (FSH), salts and compositions thereof, and intermediates therefor” (American Home Products Corporation, priority 1974, dated 1976).

Assays:
LH and FSH release [1] = test: LH- and FSH-releasing activity tested in the radioimmunoassay of Niswender et al.; type: in vivo; settings: acid addition salt
Source text: (§1) Exp. Biol. Med., 128, 807 (1968).

ovulation [2] = test: modification of the ovulation induction assay in the rat (Arimura et al., Endocrinology 80, 515); type: in vivo
Source text: as §1

LH and FSH release [3] = test: bioassays / biological equivalence to the natural hormone (not specified further)
ovulation [4] = test: induction of ovulation in the hamster (Arimura et al., Science 174, 511); type: in vivo
Source text: as §1

Row | Compound | LH- and FSH-releasing activity compared with the natural hormone (LH and FSH release [1]) | activity in induction of ovulation compared with the natural hormone (ovulation [2]; rat) | time to ovulation following administration (ovulation [2]; rodents such as rats or hamsters: rat) [h] | potency in bioassays compared with the natural product (LH and FSH release [3]; hydrochloride salt) | activity in induction of ovulation compared with the natural hormone (ovulation [4]; hamster) | time to ovulation following administration (ovulation [4]; rodents such as rats or hamsters: hamster) [h] | pharmacological / biological equivalence (LH and FSH release [3]; compared with the decapeptide or the natural hormone)
1 | CC(C)C[C@H](NC(=O)CNC(=O)[C@H](Cc1ccc(O)cc1)NC(=O)[C@H](CO)NC(=O)[C@H](Cc1c[nH]c2ccccc12)NC(=O)[C@H](Cc1c[nH]cn1)NC(=O)[C@@H]1CCC(=O)N1)C(=O)N[C@@H](CCCNC(=N)N)C(=O)N1CCC[C@H]1C(=O)NCC(N)=O [I, 5-oxo-L-prolyl-L-histidyl-L-tryptophyl-L-seryl-L-tyrosylglycyl-L-leucyl-L-arginyl-L-prolylglycinamide] | as active as the natural hormone | equally active | ≤ 18 | as potent as the latter | equally active | ≤ 18 | 
2 | 5-Oxo-L-Prolyl-L-Histidyl-L-Tryptophyl-L-Seryl-L-Tyrosylglycyl-L-Leucyl-L-Arginyl-L-Prolylglycinamide (I) Zinc Complex [Example 19] |  |  |  |  |  |  | pharmacologically equivalent to the decapeptide
